The text below walks through data of patent US20120258980A1, “Antibacterial Agent for Drug-Resistant Bacteria, Method for Screening for Same, and Use of Same” (priority 2009, published 2012).

The structures appear in SMILES notation. In brackets after ≈: the same amount, converted by molar mass. Counter-ions that a name gives are not always drawn. Like-named read-outs stand apart in the source and are kept apart here. A value given as a limit tells only on which side of the number the result lay.

For experiment [1], the system named is VRSA clinical isolates. Put plainly: microbe, parasite or virus in culture. It is filed as cell-based. The settings on record: Staphylococcus aureus. The procedure: Each of the bacterial strains listed in Table 1-1 was shake-cultured at 37° C. overnight in 4 mL of a medium (Tryptical Soy Broth: TSB, product of Becton Dickinson and Company). FDA209P was used as a control.
After completion of culturing, the resultant culture was suspended in a cation-adjusted Mueller Hinton Broth (CAMHB, product of Becton Dickinson and Company). Then, the obtained bacterial culture was adjusted in absorbance with the CAMHB so that the absorbance at 578 nm of the bacterial culture was adjusted to 0.3 measured by an absorption spectrometer. In addition, the resultant bacterial culture was 500-fold diluted with the CAMHB.
Each of the 500-fold diluted, pre-cultured bacterial cultures was added at 50 μL/well to the CAMHB containing the quinolones and the nybomycins at various concentrations (50 μL/well), followed by statically culturing at 37° C. overnight.
After completion of culturing, the growth of the bacteria was visually determined based on turbidity to measure MIC in each bacterial strain.
Here, the glycopeptides used were VCM and TEIC. The β-lactam used was OXA.

For experiment [2], the system named is VRSA clinical isolates. The settings on record: based on NARSA, cited from earlier work.

As to `Cc1cc(=O)n(C)c2c3c4c(cc12)c(C)cc(=O)n4CO3` [DNM, deoxynybomycin], the MIC in experiment [1] (VRS1, VRSA, Michigan) was ≤ 0.063 µg/mL; in experiment [1] (VRS2, VRSA, Pennsylvania), 0.125 µg/mL (≈ 0.443 µM); in experiment [1] (VRS3, VRSA, New York), ≤ 0.063 µg/mL; in experiment [1] (VRS4, VRSA, New York), ≤ 0.063 µg/mL; in experiment [1] (VRS5, VRSA, Michigan), ≤ 0.063 µg/mL; in experiment [1] (VRS6, VRSA, Michigan), ≤ 0.063 µg/mL. In experiment [1] (VRS7, VRSA, Michigan), this compound gave an MIC of 0.125 µg/mL (≈ 0.443 µM).

In the case of `C[C@H]1COc2c(N3CCN(C)CC3)c(F)cc3c(=O)c(C(=O)O)cn1c23` [LVFX, levofloxacin], the MIC in experiment [1] (VRS1, VRSA, Michigan) is 16 µg/mL (≈ 44.3 µM); in experiment [1] (VRS2, VRSA, Pennsylvania) it was 16 µg/mL (≈ 44.3 µM); in experiment [1] (VRS3, VRSA, New York) it was 16 µg/mL (≈ 44.3 µM); in experiment [1] (VRS4, VRSA, New York), 32 µg/mL (≈ 88.6 µM); in experiment [1] (VRS5, VRSA, Michigan), > 128 µg/mL; in experiment [1] (VRS6, VRSA, Michigan), 32 µg/mL (≈ 88.6 µM). For the same compound, the MIC in experiment [1] (VRS7, VRSA, Michigan) turned out to be 32 µg/mL (≈ 88.6 µM).

Turning to `CCn1cc(C(=O)O)c(=O)c2cc(F)c(N3CCNCC3)cc21` [NFLX, norfloxacin], the MIC in experiment [1] (VRS1, VRSA, Michigan) was > 128 µg/mL; in experiment [1] (VRS2, VRSA, Pennsylvania), > 128 µg/mL; in experiment [1] (VRS3, VRSA, New York), 128 µg/mL (≈ 401 µM); in experiment [1] (VRS4, VRSA, New York) it was 128 µg/mL (≈ 401 µM); in experiment [1] (VRS5, VRSA, Michigan) it was > 128 µg/mL; in experiment [1] (VRS6, VRSA, Michigan), > 128 µg/mL. For the same compound, in experiment [1] (VRS7, VRSA, Michigan), the MIC is > 128 µg/mL.

Take `Cc1cc(=O)n2c3c(c4c(cc13)c(CO)cc(=O)n4C)OC2` [NM, nybomycin]: the MIC in experiment [1] (VRS1, VRSA, Michigan) was 0.125 µg/mL (≈ 0.419 µM); in experiment [1] (VRS2, VRSA, Pennsylvania), 0.25 µg/mL (≈ 0.838 µM); in experiment [1] (VRS3, VRSA, New York), 0.125 µg/mL (≈ 0.419 µM); in experiment [1] (VRS4, VRSA, New York) it was 0.125 µg/mL (≈ 0.419 µM); in experiment [1] (VRS5, VRSA, Michigan), ≤ 0.063 µg/mL; in experiment [1] (VRS6, VRSA, Michigan), ≤ 0.063 µg/mL. The compound also displayed an MIC in experiment [1] (VRS7, VRSA, Michigan) of 0.5 µg/mL (≈ 1.68 µM).

As to `CC1COc2c(N3CCN(C)CC3)c(F)cc3c(=O)c(C(=O)O)cn1c23` (stereo not drawn) [OFLX, ofloxacin], the MIC in experiment [1] (VRS1, VRSA, Michigan) is 32 µg/mL (≈ 88.6 µM); in experiment [1] (VRS2, VRSA, Pennsylvania), 32 µg/mL (≈ 88.6 µM); in experiment [1] (VRS3, VRSA, New York), 32 µg/mL (≈ 88.6 µM); in experiment [1] (VRS4, VRSA, New York), 32 µg/mL (≈ 88.6 µM); in experiment [1] (VRS5, VRSA, Michigan) it was > 128 µg/mL; in experiment [1] (VRS6, VRSA, Michigan) it was 64 µg/mL (≈ 177 µM). For the same compound, the MIC in experiment [1] (VRS7, VRSA, Michigan) came out at 64 µg/mL (≈ 177 µM).

`Cc1onc(-c2ccccc2)c1C(=O)N[C@@H]1C(=O)N2[C@@H]1SC(C)(C)[C@@H]2C(=O)O` [OXA, oxacillin]: the MIC in experiment [2] (VRS1, VRSA, Michigan) was >16 µg/mL; in experiment [2] (VRS2, VRSA, Pennsylvania), >16 µg/mL; in experiment [2] (VRS3, VRSA, New York), >16 µg/mL; in experiment [2] (VRS4, VRSA, New York), >16 µg/mL; in experiment [2] (VRS5, VRSA, Michigan) it was >16 µg/mL; in experiment [2] (VRS6, VRSA, Michigan), >16 µg/mL. Further, in experiment [2] (VRS7, VRSA, Michigan), the MIC is 8 µg/mL (≈ 19.9 µM).

As to `C[C@@H]1CN(c2c(F)c(N)c3c(=O)c(C(=O)O)cn(C4CC4)c3c2F)C[C@H](C)N1` [SPFX, sparfloxacin], the MIC turned out to be 8 µg/mL (≈ 20.4 µM) in experiment [1] (VRS1, VRSA, Michigan); 8 µg/mL (≈ 20.4 µM) in experiment [1] (VRS2, VRSA, Pennsylvania); 16 µg/mL (≈ 40.8 µM) in experiment [1] (VRS3, VRSA, New York); 16 µg/mL (≈ 40.8 µM) in experiment [1] (VRS4, VRSA, New York); 128 µg/mL (≈ 326 µM) in experiment [1] (VRS5, VRSA, Michigan); 16 µg/mL (≈ 40.8 µM) in experiment [1] (VRS6, VRSA, Michigan). Besides, in experiment [1] (VRS7, VRSA, Michigan), the MIC was 16 µg/mL (≈ 40.8 µM).

As to `NC1CCN(c2nc3c(cc2F)c(=O)c(C(=O)O)cn3-c2ccc(F)cc2F)C1` (stereo not drawn) [TFLX, tosufloxacin tosylate], the MIC in experiment [1] (VRS1, VRSA, Michigan) was 4 µg/mL; in experiment [1] (VRS2, VRSA, Pennsylvania), > 128 µg/mL; in experiment [1] (VRS3, VRSA, New York), > 128 µg/mL; in experiment [1] (VRS4, VRSA, New York), > 128 µg/mL; in experiment [1] (VRS5, VRSA, Michigan), > 128 µg/mL; in experiment [1] (VRS6, VRSA, Michigan), > 128 µg/mL. In experiment [1] (VRS7, VRSA, Michigan), the MIC was determined as 4 µg/mL.

In the case of `CN[C@H](CC(C)C)C(=O)N[C@H]1C(=O)N[C@@H](CC(N)=O)C(=O)N[C@H]2C(=O)N[C@H]3C(=O)N[C@H](C(=O)N[C@H](C(=O)O)c4cc(O)cc(O)c4-c4cc3ccc4O)[C@H](O)c3ccc(c(Cl)c3)Oc3cc2cc(c3O[C@@H]2O[C@H](CO)[C@@H](O)[C@H](O)[C@H]2O[C@H]2C[C@](C)(N)[C@H](O)[C@H](C)O2)Oc2ccc(cc2Cl)[C@H]1O` [VCM, vancomycin], the MIC was >256 µg/mL in experiment [2] (VRS1, VRSA, Michigan); 64 µg/mL (≈ 44.2 µM) in experiment [2] (VRS2, VRSA, Pennsylvania); >32 µg/mL in experiment [2] (VRS3, VRSA, New York); >32 µg/mL in experiment [2] (VRS4, VRSA, New York); >256 µg/mL in experiment [2] (VRS5, VRSA, Michigan); >256 µg/mL in experiment [2] (VRS6, VRSA, Michigan). The MIC in experiment [2] (VRS7, VRSA, Michigan) was >256 µg/mL.
